In patent US5736380A, “Maltose-trehalose converting enzyme, and preparation and uses thereof” (Kabushiki Kaisha Hayashibara Seibutsu Kagaku Kenkyujo, priority 1993, dated 1998):
“Also recorded” adds a separate entry of the source. Structures can show the parent of a compound that is named as a salt.

Experiments:
[1] = molecular target: maltose-trehalose converting enzyme derived from Pseudomonas putida H262 (Pseudomonas putida, UniProt Q88FN0); test: Inhibition of enzyme activity; assay type: biochemical; conditions: one mM Cu^++ or Hg^++, 50 mM Tris-HCl buffer
Method: The activity of the present maltose-trehalose converting enzyme is assayed as follows: One ml of an enzyme solution is added to one ml of 20 w/v % maltose as a substrate in 10 mM phosphate buffer (pH 7.0), and the mixture solution is incubated at 25° C., 35° C. or 60° C. for 60 min, followed by the heating the solution at 100° C. for 10 min to suspend the enzymatic reaction. To the resultant reaction mixture is precisely diluted by 11-fold with 50 mM phosphate buffer (pH 7.5), and 0.4 ml of the diluted solution is admixed with 0.1 ml of a trehalase solution having one unit/ml of trehalase. […] As a control, by using trehalase and an enzyme solution, which were preheated at 100° C. for 10 min to inactivate the enzyme, the activity of the enzyme solution is assayed similarly as above. […] As regards to the reaction temperature, it is set to 25° C. for the enzyme of a microorganism of the genus Pimelobacter; 35° C. for that of the genus Pseudomonas; and 60° C. for that of the genus Thermus.
Effects of temperature and pH on the activity of the present enzyme were studied in accordance with the method as used for assaying the enzyme activity. The results were respectively shown in FIG. 5 (effect of temperature) and FIG. 6 (effect of pH). The optimum temperature of the enzyme was about […] when incubated at pH 7.0 for 60 min and the optimum pH was about 7.3-8.3 when incubated at 35° C. for 60 min. The thermal stability of the enzyme was determined by incubating it in containers with 50 mM phosphate buffers (pH 7.0) at different temperatures for 60 min, cooling the resultant buffers in the containers with cold water, and assaying the residual enzyme activity in each buffer. The pH stability of the enzyme was determined by incubating it in 50 mM phosphate buffers having different pHs at 35° C. for 60 min, adjusting the resultant buffers to pH 7.0, and assaying the residual enzyme activity in each buffer. The enzyme was stable up to a temperature of about 40° C. and stable at a pH of about 6.0-9.5. […]

[2] = molecular target: T1, maltose-trehalose converting enzyme derived from Thermus aquaticus (ATCC 33923) (Thermus thermophilus, UniProt O06458); test: Inhibition of enzyme activity; assay type: biochemical; conditions: one mM Cu^++ or Hg^++, 50 mM Tris-HCl buffer
T1 construct: The culture obtained in Experiment 15 was centrifuged to obtain an about 0.28 kg of wet cells; endogenous in cells; host or cells: Thermus aquaticus (ATCC 33923), enzyme purified from the disrupted wild-type cells
T1 sequence (O06458 1-963): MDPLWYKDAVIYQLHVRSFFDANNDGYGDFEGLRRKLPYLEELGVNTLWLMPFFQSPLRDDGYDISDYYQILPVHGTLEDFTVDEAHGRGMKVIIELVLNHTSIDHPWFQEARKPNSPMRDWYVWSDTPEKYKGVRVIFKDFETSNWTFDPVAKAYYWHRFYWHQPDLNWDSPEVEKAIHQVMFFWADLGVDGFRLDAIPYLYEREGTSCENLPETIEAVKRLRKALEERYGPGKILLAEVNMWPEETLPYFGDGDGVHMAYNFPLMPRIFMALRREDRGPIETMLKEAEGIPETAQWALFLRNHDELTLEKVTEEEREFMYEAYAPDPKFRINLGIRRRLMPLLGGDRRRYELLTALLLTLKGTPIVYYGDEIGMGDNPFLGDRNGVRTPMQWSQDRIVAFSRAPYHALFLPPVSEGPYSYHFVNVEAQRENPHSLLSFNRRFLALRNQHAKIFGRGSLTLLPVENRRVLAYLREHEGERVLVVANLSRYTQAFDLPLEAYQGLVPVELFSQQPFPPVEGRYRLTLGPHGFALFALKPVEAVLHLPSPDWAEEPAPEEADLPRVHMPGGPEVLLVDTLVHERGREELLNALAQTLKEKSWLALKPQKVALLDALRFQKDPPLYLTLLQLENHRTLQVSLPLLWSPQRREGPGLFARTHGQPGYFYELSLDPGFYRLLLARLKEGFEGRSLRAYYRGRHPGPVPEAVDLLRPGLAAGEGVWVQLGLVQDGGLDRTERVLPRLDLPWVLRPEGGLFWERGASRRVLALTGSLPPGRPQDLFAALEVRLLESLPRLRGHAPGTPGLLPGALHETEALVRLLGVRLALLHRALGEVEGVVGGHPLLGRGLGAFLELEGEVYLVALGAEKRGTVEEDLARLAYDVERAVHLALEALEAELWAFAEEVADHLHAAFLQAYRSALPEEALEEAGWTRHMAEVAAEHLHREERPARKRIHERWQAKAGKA
Method: The activity of the present maltose-trehalose converting enzyme is assayed as follows: One ml of an enzyme solution is added to one ml of 20 w/v % maltose as a substrate in 10 mM phosphate buffer (pH 7.0), and the mixture solution is incubated at 25° C., 35° C. or 60° C. for 60 min, followed by the heating the solution at 100° C. for 10 min to suspend the enzymatic reaction. To the resultant reaction mixture is precisely diluted by 11-fold with 50 mM phosphate buffer (pH 7.5), and 0.4 ml of the diluted solution is admixed with 0.1 ml of a trehalase solution having one unit/ml of trehalase. The resultant solution is incubated at 45° C. for 120 min, followed by determining the amount of glucose by the glucose-oxidase method. As a control, by using trehalase and an enzyme solution, which were preheated at 100° C. for 10 min to inactivate the enzyme, the activity of the enzyme solution is assayed similarly as above. With the above assay, the content of trehalose, formed by the present maltose-trehalose converting enzyme, is determined based on the amount of glucose formed, and one unit activity of the enzyme is defined as the amount of enzyme which forms one μmole of trehalose per minute. As regards to the reaction temperature, it is set to 25° C. for the enzyme of a microorganism of the genus Pimelobacter; 35° C. for that of the genus Pseudomonas; and 60° C. for that of the genus Thermus.
Effects of temperature and pH on the activity of the present enzyme were studied in accordance with the method as used for assaying the enzyme activity. […] The thermal stability of the enzyme was determined by incubating it in 50 mM phosphate buffers (pH 7.0) in test tubes at different temperatures for 60 min, cooling the test tubes with cold water, and assaying the residual enzyme activity in each buffer. The pH stability of the enzyme was determined by incubating it in 50 mM phosphate buffers having different pHs at 60° C. for 60 min, adjusting the resultant buffers to pH 7.0, and assaying the residual enzyme activity in each buffer.

Chain of maltose-trehalose converting enzyme derived from Pseudomonas putida H262 (Q88FN0 entry or part of it): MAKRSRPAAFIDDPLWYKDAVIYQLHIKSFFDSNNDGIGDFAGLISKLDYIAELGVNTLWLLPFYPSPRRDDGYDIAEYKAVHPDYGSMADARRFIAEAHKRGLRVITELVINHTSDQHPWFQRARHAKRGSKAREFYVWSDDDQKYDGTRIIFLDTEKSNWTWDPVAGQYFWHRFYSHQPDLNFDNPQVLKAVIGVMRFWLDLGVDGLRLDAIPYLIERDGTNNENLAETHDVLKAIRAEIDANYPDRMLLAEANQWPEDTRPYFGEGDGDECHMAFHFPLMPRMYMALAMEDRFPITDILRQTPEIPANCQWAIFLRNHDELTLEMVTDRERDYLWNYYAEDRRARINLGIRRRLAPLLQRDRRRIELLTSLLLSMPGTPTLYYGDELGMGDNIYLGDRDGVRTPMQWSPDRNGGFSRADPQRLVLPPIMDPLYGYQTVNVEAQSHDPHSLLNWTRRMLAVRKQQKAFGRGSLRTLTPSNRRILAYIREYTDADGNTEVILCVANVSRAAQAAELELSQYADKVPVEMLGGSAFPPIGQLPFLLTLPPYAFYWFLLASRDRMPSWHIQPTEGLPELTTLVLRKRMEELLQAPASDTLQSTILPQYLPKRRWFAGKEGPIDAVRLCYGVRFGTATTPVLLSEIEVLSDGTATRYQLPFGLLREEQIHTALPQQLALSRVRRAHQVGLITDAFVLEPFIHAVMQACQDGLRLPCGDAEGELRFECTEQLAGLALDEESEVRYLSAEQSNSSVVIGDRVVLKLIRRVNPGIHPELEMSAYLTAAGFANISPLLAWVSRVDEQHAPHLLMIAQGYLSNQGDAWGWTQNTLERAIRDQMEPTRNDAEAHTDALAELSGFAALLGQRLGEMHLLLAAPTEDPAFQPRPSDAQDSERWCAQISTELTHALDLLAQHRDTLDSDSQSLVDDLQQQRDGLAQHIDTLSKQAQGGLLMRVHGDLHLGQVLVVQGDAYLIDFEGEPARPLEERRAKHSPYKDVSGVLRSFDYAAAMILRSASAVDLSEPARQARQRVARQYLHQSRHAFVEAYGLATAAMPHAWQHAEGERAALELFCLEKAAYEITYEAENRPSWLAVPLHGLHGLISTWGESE

NC(CO)(CO)CO [Tris-HCl buffer]
Inhibition of activity [1]: inhibited; also recorded: inhibitory
Inhibition of activity [2]: inhibited; also recorded: inhibitory

[Cu+2] [Cu^++]
Inhibition of activity [1]: inhibited; also recorded: inhibitory
Inhibition of activity [2]: inhibited; also recorded: inhibitory

[Hg+2] [Hg^++]
Inhibition of activity [1]: inhibited; also recorded: inhibitory
Inhibition of activity [2]: inhibited; also recorded: inhibitory
